Patent US12285012B2, “Compositions comprising pyridine carboxylate herbicides with acetolactate synthase (ALS) inhibitor herbicides” (Corteva Agriscience LLC, priority 2018, dated 2025)
Values joined by “and” are separate entries in the source; they are usually repeats but may differ in a detail not shown here. Identical values can stand only once. Like-named read-outs stand apart in the source and are kept apart here.

What was measured:
Assay in all cases: Greenhouse postemergence herbicidal effect
Type in all cases: in vivo
[1] = tested on: Canadian thistle (CIRAR, Cirsium arvense)
Procedure, shortened: (§1)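 Visual injury ratings (0 = no injury, 100 = complete kill) were taken 20–22 d after treatment relative to solvent-blank controls. Applications were made to plants at the second or third true leaf stage, using emulsifiable concentrates with cloquintocet-mexyl safener.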

[2] = tested on: pineapple weed (MATMT, Matricaria discoidea)
Procedure, shortened: as §1

[3] = tested on: pigweed (AMARE, Amaranthus retroflexus)
Procedure, shortened: as §1

[4] = tested on: winter rape (BRSNW, Brassica napus)
Procedure, shortened: as §1

[5] = tested on: wild pansy (VIOTR, Viola tricolor)
Procedure, shortened: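 Injury was rated visually after 20-22 d on a 0 (none) to 100% (complete kill) scale relative to solvent-sprayed controls, with sub-irrigation to avoid wash-off. Rates were given in g ae/ha or g ai/ha depending on component.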

[6] = tested on: chickweed (STEME, Stellaria media)
Procedure, shortened: as §1

[7] = tested on: wild chamomile (MATCH, Matricaria chamomilla)
Procedure, shortened: as §1

[8] = tested on: wild buckwheat (POLCO, Polygonum convolvulus)
Procedure, shortened: as §1

[9] = tested on: Russian thistle (SASKR, Salsola kali)
Procedure, shortened: as §1

[10] = tested on: kochia (KCHSC, Kochia scoparia)
Procedure, shortened: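 Plants at the second or third true leaf stage received overhead spray at 187 L/ha, with the pyridine carboxylate (plus cloquintocet-mexyl safener) alone or with ALS herbicides in 1.25% v/v crop oil. Rates are in g ae/ha or g ai/ha. Visual injury versus solvent-blank controls was scored 0–100% after 20-22 d in the greenhouse.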

[11] = tested on: common lambsquarters (CHEAL, Chenopodium album L.)
[12] = Compound A 10 g/ha (Examples 62-63)
[13] = Compound A 10 g/ha, safener mefenpyr-diethyl

## N#CCOC(=O)c1nc(-c2ccc3cc[nH]c3c2F)c(F)c(N)c1Cl [Compound A, cyanomethyl 4-amino-3-chloro-5-fluoro-6-(7-fluoro-1H-indol-6-yl)pyridine-2-carboxylate]
[1]; CIRAR, Compound A 10 g/ha (Table 65)
  Obs % visual injury: 20%
[1]; CIRAR, Compound A 10 g/ha (Table 66)
  Obs % visual injury: 30%
[1]; CIRAR, Compound A 15 g/ha
  Obs % visual injury: 55%
[1]; Cirsium arvense, post-emergence, 10 g/ha, read-out: % visual injury, Obs
  pest or weed control at 10 g/ha: 43%
[1]; Cirsium arvense, post-emergence, CIRAR, Compound A 10 g/ha, read-out: % visual injury, Obs
  pest or weed control at 10 g/ha: 33%
[1]; Cirsium arvense, post-emergence, CIRAR, Compound A 15 g/ha, read-out: % visual injury, Obs
  pest or weed control at 15 g/ha: 55%
[1]; Cirsium arvense, post-emergence, Compound A 10 g/ha, read-out: % visual injury, Obs
  pest or weed control at 10 g/ha: 20%
[1]; Cirsium arvense, post-emergence, Compound A 10 g/ha, safener mefenpyr-diethyl, read-out: % visual injury, Obs
  pest or weed control at 10 g/ha: 43%
[1]; Compound A 10 g/ha
  % visual injury: 40% and 60% and 30% and 33%
  % visual injury Obs: 33% and 55%
[1]; [12]
  CIRAR % visual injury Obs: 20%
[1]; [13]
  CIRAR % visual injury Obs: 43%
[1]; Compound A 15 g/ha
  % visual injury: 65% and 55%
  % visual injury Obs: 55%
[2]; Compound A 10 g/ha
  % visual injury: 15%
[2]; Compound A 15 g/ha
  % visual injury: 30%
[3]; 10 g/ha
  % visual injury, Obs: 90%
[3]; AMARE, Compound A 10 g/ha
  % visual injury, Obs: 75%
  Obs % visual injury: 75% and 85% and 100%
[3]; AMARE, Compound A 10 g/ha (Table 65)
  Obs % visual injury: 100%
[3]; AMARE, Compound A 10 g/ha (Table 66)
  Obs % visual injury: 90%
[3]; AMARE, Compound A 10 g/ha (Table 67)
  Obs % visual injury: 78%
[3]; AMARE, Compound A 15 g/ha
  % visual injury, Obs: 80%
  Obs % visual injury: 80%
[3]; AMARE, Compound A 15 g/ha (Table 67)
  Obs % visual injury: 83%
[3]; Compound A 10 g/ha
  % visual injury: 73% and 90% and 75%
  % visual injury Obs: 75% and 100% and 85%
  % visual injury, Obs: 100%
[3]; [12]
  AMARE % visual injury Obs: 100%
[3]; [13]
  % visual injury, Obs: 98%
  AMARE % visual injury Obs: 98%
[3]; Compound A 15 g/ha
  % visual injury: 80%
  % visual injury Obs: 80%
[4]; 10 g/ha
  % visual injury, Obs: 68%
[4]; BRSNW, Compound A 10 g/ha
  % visual injury, Obs: 45%
  Obs % visual injury: 45% and 40%
[4]; BRSNW, Compound A 10 g/ha (Table 66)
  Obs % visual injury: 68%
[4]; BRSNW, Compound A 10 g/ha (Table 67)
  Obs % visual injury: 60%
[4]; BRSNW, Compound A 15 g/ha
  % visual injury, Obs: 73%
  Obs % visual injury: 73%
[4]; BRSNW, Compound A 15 g/ha (Table 67)
  Obs % visual injury: 75%
[4]; Compound A 10 g/ha
  % visual injury: 75% and 43% and 68% and 45%
  % visual injury Obs: 45% and 40%
[4]; Compound A 15 g/ha
  % visual injury: 75% and 73%
  % visual injury Obs: 73%
[5]; 10 g/ha
  % visual injury, Obs: 23%
[5]; Compound A 10 g/ha
  % visual injury: 10%
[5]; [13]
  % visual injury, Obs: 18%
  VIOTR % visual injury Obs: 18%
[5]; Compound A 15 g/ha
  % visual injury: 10%
[6]; Compound A 10 g/ha
  % visual injury: 100%
[6]; [13]
  % visual injury, Obs: 83%
  STEME % visual injury Obs: 83%
[6]; Compound A 15 g/ha
  % visual injury: 100%
[7]; Compound A 10 g/ha
  % visual injury: 40% and 30% and 45%
  % visual injury, Obs: 13%
[7]; [12]
  MATCH % visual injury Obs: 13%
[7]; Compound A 15 g/ha
  % visual injury: 50% and 45%
  % visual injury Obs: 45%
[7]; MATCH, Compound A 10 g/ha (Table 65)
  Obs % visual injury: 13%
[7]; MATCH, Compound A 10 g/ha (Table 66)
  Obs % visual injury: 30%
[7]; MATCH, Compound A 10 g/ha (Table 67)
  Obs % visual injury: 15%
[7]; MATCH, Compound A 15 g/ha
  % visual injury, Obs: 45%
  Obs % visual injury: 45%
[7]; MATCH, Compound A 15 g/ha (Table 67)
  Obs % visual injury: 10%
[8]; 10 g/ha
  % visual injury, Obs: 70%
[8]; Compound A 10 g/ha
  % visual injury: 95% and 93% and 70% and 98%
  % visual injury, Obs: 91%
[8]; [12]
  POLCO % visual injury Obs: 91%
[8]; [13]
  % visual injury, Obs: 100%
  POLCO % visual injury Obs: 100%
[8]; Compound A 15 g/ha
  % visual injury: 97% and 88%
  % visual injury Obs: 88%
[8]; POLCO, Compound A 10 g/ha
  % visual injury, Obs: 98% and 78%
[8]; POLCO, Compound A 10 g/ha (Table 65)
  Obs % visual injury: 91%
[8]; POLCO, Compound A 10 g/ha (Table 66)
  Obs % visual injury: 70%
[8]; POLCO, Compound A 10 g/ha (Table 67)
  Obs % visual injury: 60%
[8]; POLCO, Compound A 15 g/ha
  % visual injury, Obs: 88%
  Obs % visual injury: 88%
[8]; POLCO, Compound A 15 g/ha (Table 67)
  Obs % visual injury: 63%
[9]; 10 g/ha
  % visual injury, Obs: 60% and 63%
[9]; Compound A 10 g/ha
  % visual injury: 70% and 63%
  % visual injury Obs: 60% and 63%
  % visual injury, Obs: 65%
[9]; [12]
  SASKR % visual injury Obs: 65%
[9]; Compound A 15 g/ha
  % visual injury: 75%
[9]; SASKR, Compound A 10 g/ha
  % visual injury, Obs: 60%
  Obs % visual injury: 63% and 65%
[9]; SASKR, Compound A 10 g/ha (Table 65)
  Obs % visual injury: 65%
[9]; SASKR, Compound A 10 g/ha (Table 67)
  Obs % visual injury: 58%
[9]; SASKR, Compound A 15 g/ha (Table 67)
  Obs % visual injury: 65%
[10]; Bassia scoparia, post-emergence, 10 g/ha, read-out: % visual injury, Obs
  pest or weed control at 10 g/ha: 68%
[10]; Bassia scoparia, post-emergence, Compound A 10 g/ha, read-out: % visual injury, Obs
  pest or weed control at 10 g/ha: 65%
[10]; Bassia scoparia, post-emergence, Compound A 10 g/ha, safener mefenpyr-diethyl, read-out: % visual injury, Obs
  pest or weed control at 10 g/ha: 70%
[10]; Bassia scoparia, post-emergence, KCHSC, Compound A 10 g/ha, read-out: % visual injury, Obs
  pest or weed control at 10 g/ha: 68%
[10]; Bassia scoparia, post-emergence, KCHSC, Compound A 15 g/ha, read-out: % visual injury, Obs
  pest or weed control at 15 g/ha: 68%
[10]; Compound A 10 g/ha
  % visual injury: 75% and 63% and 70% and 68%
  % visual injury Obs: 68% and 58% and 70%
[10]; [12]
  KCHSC % visual injury Obs: 65%
[10]; [13]
  KCHSC % visual injury Obs: 70%
[10]; Compound A 15 g/ha
  % visual injury: 75% and 68%
  % visual injury Obs: 68%
[10]; KCHSC, Compound A 10 g/ha
  Obs % visual injury: 68% and 70% and 65%
[10]; KCHSC, Compound A 10 g/ha (Table 65)
  Obs % visual injury: 65%
[10]; KCHSC, Compound A 10 g/ha (Table 66)
  Obs % visual injury: 70%
[10]; KCHSC, Compound A 10 g/ha (Table 67)
  Obs % visual injury: 70%
[10]; KCHSC, Compound A 15 g/ha
  Obs % visual injury: 68%
[10]; KCHSC, Compound A 15 g/ha (Table 67)
  Obs % visual injury: 70%
[11]; 10 g/ha
  % visual injury, Obs: 83% and 90% and 78%
[11]; CHEAL, Compound A 10 g/ha
  % visual injury, Obs: 78% and 83%
  Obs % visual injury: 78% and 80% and 88%
[11]; CHEAL, Compound A 10 g/ha (Table 65)
  Obs % visual injury: 88%
[11]; CHEAL, Compound A 10 g/ha (Table 66)
  Obs % visual injury: 78%
[11]; CHEAL, Compound A 10 g/ha (Table 67)
  Obs % visual injury: 78%
[11]; CHEAL, Compound A 15 g/ha
  % visual injury, Obs: 85%
  Obs % visual injury: 85%
[11]; CHEAL, Compound A 15 g/ha (Table 67)
  Obs % visual injury: 83%
[11]; Compound A 10 g/ha
  % visual injury: 93% and 78%
  % visual injury Obs: 78% and 83% and 80%
  % visual injury, Obs: 88%
[11]; [12]
  CHEAL % visual injury Obs: 88%
[11]; [13]
  % visual injury, Obs: 100%
  CHEAL % visual injury Obs: 100%
[11]; Compound A 15 g/ha
  % visual injury: 85%
  % visual injury Obs: 85%
